{
  "source": "patent US6399319B1",
  "about": "“Protein kinase assay as a method for identification of fungicides” (Syngenta Crop Protection, Inc., priority 1996, dated 2002)",
  "key": {"protein kinase PK-III": {"tested_on": "protein kinase PK-III", "assay": "Protein kinase inhibition assay, PK-III fraction (protamine-sulfate, [γ-33P]ATP)", "format": "biochemical, Neurospora crassa", "conditions": "100 μM in the enzyme assay mixture; protamine-sulfate as substrate; relative to DMSO control (=0% inhibition)", "description": "(§1) Mycelium from a stock culture of the wild-type strain 74-OR8-1, obtained from the American Type Culture Collection (ATCC 18889), is grown as inoculum in Petri dishes (d=9 cm) at 24° C. in the dark for 14 days (medium: Biomalt 10 g, Difco dry yeast extract 4 g, glucose 4 g and agar 20 g, in 1 l water). […]\n(§2) Protein kinase activity is assayed in a reaction mixture containing in a final volume of […], 20 mM Tris-HCl (pH 7.4), 20 mg protamine-sulfate, 10 mM Mg(NO3)2, 10 mM ATP (0.2 mCi [g-^33P]ATP), 1 mM NaN3, 0.04 mM okadaic acid, […] of protein kinase. After 20 minutes incubation at 32° C., aliquots of […] are analyzed for substrate phosphorylation using P81 chromatography paper (20 mm×20 mm; Whatman, Maidstone, UK) according to the method described by J. J. Witt and R. Roskoski (Anal. Biochem., 66, 253-258, 1975). After washing the unbounded radioactivity with 75 mM phosphoric acid (3×15 min) and ethanol 94% (1×5 min) the radioactivity in the chromatography paper is counted in 5 ml ULTIMA GOLD LSC-cocktail (Packard Instrument, Zürich, Switzerland) using a Tri-Carb 2500 TR Packard Instrument. […]"}, "protein kinase PK-II": {"tested_on": "protein kinase PK-II", "assay": "Protein kinase inhibition assay, PK-II fraction (protamine-sulfate, [γ-33P]ATP)", "format": "biochemical, Neurospora crassa", "conditions": "100 μM in the enzyme assay mixture; protamine-sulfate as substrate; relative to DMSO control (=0% inhibition)", "description": "as §1, §2"}},
  "data": [
    {"smiles": "N#Cc1c[nH]cc1-c1cccc(Cl)c1Cl", "note": "[fenpiclonil, 4-(2,3-dichlorophenyl)pyrrole-3-carbonitrile]", "values": [
      {"measurement": "inhibition of protein kinase PK-III", "setting": "protein kinase PK-III", "result": 90, "unit": "%"},
      {"measurement": "inhibition of protein kinase PK-II", "setting": "protein kinase PK-II", "result": 67, "unit": "%"}
    ]}
  ]
}
